Source: patent publication US5043328A, “Formulations containing unsaturated fatty acids for the synthesis of prostaglandins and hydroxy-fatty acids in biological systems” (priority 1986, dated 1991)
Like-named read-outs stand apart in the source and are kept apart here.

Experiments:
[1] = target: T1, enzyme (from seminal vesicles of sheep) (Ovis aries, UniProt P05979)
T1 sequence (P05979 25-600): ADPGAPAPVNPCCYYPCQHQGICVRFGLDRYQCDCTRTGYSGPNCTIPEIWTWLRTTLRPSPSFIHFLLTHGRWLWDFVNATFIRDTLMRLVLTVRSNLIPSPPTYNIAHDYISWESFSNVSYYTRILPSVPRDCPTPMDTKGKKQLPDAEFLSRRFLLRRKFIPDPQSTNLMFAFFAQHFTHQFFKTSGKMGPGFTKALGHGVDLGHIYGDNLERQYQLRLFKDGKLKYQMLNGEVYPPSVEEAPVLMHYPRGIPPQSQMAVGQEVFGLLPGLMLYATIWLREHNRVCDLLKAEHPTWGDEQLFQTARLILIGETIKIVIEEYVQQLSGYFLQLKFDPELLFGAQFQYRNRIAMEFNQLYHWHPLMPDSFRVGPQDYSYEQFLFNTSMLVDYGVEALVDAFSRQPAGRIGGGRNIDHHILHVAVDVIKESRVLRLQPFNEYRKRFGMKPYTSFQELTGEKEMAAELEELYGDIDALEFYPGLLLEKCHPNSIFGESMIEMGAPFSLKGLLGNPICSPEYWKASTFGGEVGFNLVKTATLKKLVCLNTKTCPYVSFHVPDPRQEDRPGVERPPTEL
Experimental: Method 2: Prostaglandin Synthesis
0.3 ml of 0.03M potassium phosphate buffer of pH=8.0 contains 0.5 mg of enzyme (from seminal vesicles of sheep) (Biochemistry 10 (1971) 2372) or homogenate of the inner kidney medulla (Life Sciences 26 (1980) 765), 2.75 μg of ^14 C-arachidonic acid (0.5 μCi) and 0.5 mg of stimulator, and, if appropriate, 0.5 mg of stabilizer substance (see Table 1). After 10 minutes' incubation at 37° C., the reaction is stopped with 0.05 ml of 1.2M citric acid and the mixture is extracted with twice 0.5 ml of ethyl acetate, the combined extracts are freed of solvent, and the residue is dissolved in 0.2 ml of methanol, diluted 1:1 with water and separated by HPLC (nucleosil C-18 column, 125×4.6 mm, from Bischoff, Leonberg, Germany, solvent 300 ml of acetonitrile, 700 ml of water and 1 ml of glacial acetic acid and after 30 minutes pure methanol). The separation of the radioactive fractions is followed by a monitor (LB 504 from Berthold, Wildbad, Germany). The products formed, such as 6-keto-prostaglandin F2alpha, prostaglandin E2, prostaglandin F2alpha and prostaglandin D2, are separated under these conditions.
The prostaglandins PGE2, PGF2 alpha and PGD2 as products from arachidonic acid where quantified by means of method 2, and the sum was related as "total prostaglandin" to 100%. The quantity of "total prostaglandin" formed without the addition of a stimulator was set at f=1; the quantity formed after stimulation was related thereto. f=2 or f=3 therefore means twice or three times the stimulation under the conditions of method 2. The stability of the sample was investigated by means of method 1 (right-hand column). […] Values greater than 25-28% therefore represent a stabilization, and values smaller than 25-28% represent a destabilization. Example No. 1 was carried out without a stimulator. […] The substances test with respect to stabilization (see Method 1 for quantities) were: A) aqueous solution without stabilizer addition, B) ethanolic solution without further addition, C) pyridine solution, D) with rutin, predissolved in dimethyl sulfoxide, dimethyl sulfoxide then stripped off, E) like B) with lecithin, ethanol stripped off, F) like A) with cytochrome c from horse heart (from Boehringer, Mannheim, Germany), G) like A) with methemoglobin (human) (from Sigman, Munich, Germany), H) like A) with bovine serum albumin (from Calbiochem, Frankfurt, Germany), J) like A) or B), but solvent stripped off, K) like J) with cytochrome c, L) like J) with hemoglobin (human) (from Behringwerke, Marburg, Germany), and M) like J) with human serum albumin (from Behringwerke, Marburg, Germany).

[2] = for Stability (% remaining fatty acid by Method 1) / Stabilization (% remaining unsaturated fatty acid by Method 1): 1440 min; for Stability (% of remaining arachidonic acid by Method 1): 24 h 37° C.; for undesired decomposition / byproducts of polyunsaturated fatty acid (arachidonic acid) with added stimulator: aqueous medium, result in words
Experimental: Method 1: Investigation of the Stability of Unsaturated Fatty Acids in the Formulations
The stabilizing action of substances on polyunsaturated fatty acids was investigated as follows:
Test A for Water-Soluble Substances:
0.125 mg of unsaturated fatty acid or Na salt (see tables) (sodium arachidonate, from Sigma, Munich, Germany) is dissolved in 0.05 ml of water. 0.2 ml of aqueous solution which contains 2 mg of stabilizer and can additionally contain 2 mg of stimulator is mixed in (cf. Table 1), 0.1 ml is then taken out immediately, extracted and analysed (see below). Further processing according to modification 1 or 2.
Modification 1 for Aqueous Solutions
After 24 hours incubation at 37° C., 0.1 ml is again taken, extracted and analysed (see below).
Modification 2 for Solid Mixtures (Lyophilisates)
The test solution is lyophilized, the lyophilisate is incubated for 24 hours at 37° C. and then dissolved again in the previous quantity of water, and 0.1 ml is taken, extracted and analysed (see below).
Test B for Water-Insoluble Substances:
0.125 mg of unsaturated fatty acid (arachidonic acid, 5,8,11,14,17-eicosapentaenoic acid or 8,11,14-eicosatrienoic acid, from Sigma, Munich) is dissolved in 0.05 ml of ethanol or dimethyl sulfoxide. 0.2 ml of ethanol (or dimethyl sulfoxide) which contains 2 mg of stabilizer and can additionally contain 2 mg of the stimulator (cf. Table 1) is added thereto, and 0.1 ml is taken immediately and, as below, extracted and analysed. Further treatment according to modification 1 or 2.
Modification 1 for Solutions
After 24 hours' incubation at 37° C., 0.1 ml is again taken, mixed with 0.1 ml of water, extracted and analysed.
Modification 2 for Solid Mixtures
The remaining solution is freed of solvent, incubated for 24 hours at 37° C. and then dissolved again in 0.15 ml of solvent, and 0.1 ml is taken, mixed with 0.1 ml of water, extracted and analysed.
0.05 ml of 1.2M aqueous citric acid solution is added to the samples obtained, and the samples are extracted with twice 0.5 ml of ethyl acetate, the ethyl acetate is removed from the combined extracts and the residue is dissolved in 0.8 ml of methanol and analysed by means of high-pressure liquid chromatography (HPLC) (Rad Pak C-18 column, 100×8 mm, from Waters, Konigstein, Germany, 1.5 ml/minute, solvent 800 ml of methanol, 200 ml of water and 0.1 ml of glacial acetic acid). The separation is monitored with a commercially available UV detector at 206 nm.
The prostaglandins PGE2, PGF2 alpha and PGD2 as products from arachidonic acid where quantified by means of method 2, and the sum was related as "total prostaglandin" to 100%. The quantity of "total prostaglandin" formed without the addition of a stimulator was set at f=1; the quantity formed after stimulation was related thereto. f=2 or f=3 therefore means twice or three times the stimulation under the conditions of method 2. The stability of the sample was investigated by means of method 1 (right-hand column). […] Values greater than 25-28% therefore represent a stabilization, and values smaller than 25-28% represent a destabilization. Example No. 1 was carried out without a stimulator.

[3] = Table 1, share of total prostaglandin (=100%)
[4] = seminal vesicle enzyme, 10 min, pH 8
[5] = A) aqueous solution without stabilizer addition
[6] = B) ethanolic solution without further addition
[7] = F) like A) with cytochrome c from horse heart
[8] = L) like J) with hemoglobin (human)
[9] = H) like A) with bovine serum albumin
[10] = Table 2, share of total prostaglandin

## O=C(O)CCc1c[nH]c2ccc(O)cc12 [Example 21]
[1]; [3]
  PGD2 %: 17%
  PGE2 %: 80%
  PGF2alpha %: 3%
[1]; [4]
  relative total prostaglandin f: 5.7
[2]
  Stability (% remaining fatty acid by Method 1): 96%

## NCCc1c[nH]c2ccc(O)cc12 [Example 22]
[1]; [3]
  PGD2 %: 20%
  PGE2 %: 75%
  PGF2alpha %: 5%
[1]; [4]
  relative total prostaglandin f: 10.6
[2]; [5]
  Stability (% of remaining arachidonic acid by Method 1): 16%
[2]; [6]
  Stability (% of remaining arachidonic acid by Method 1): 99%
[2]; E) like B) with lecithin, ethanol stripped off
  Stability (% of remaining arachidonic acid by Method 1): 96%
[2]; [7]
  Stability (% of remaining arachidonic acid by Method 1): 98%
[2]; K) like J) with cytochrome c
  Stability (% of remaining arachidonic acid by Method 1): 98%
[2]; [8]
  Stability (% of remaining arachidonic acid by Method 1): 100%

## NCCc1c[nH]c2ccccc12 [Example 23]
[1]; [3]
  PGD2 %: 16%
  PGE2 %: 81%
  PGF2alpha %: 3%
[2]; [5]
  Stability (% of remaining arachidonic acid by Method 1): 20%
[2]; D) with rutin, predissolved in dimethyl sulfoxide, dimethyl sulfoxide then stripped off
  Stability (% of remaining arachidonic acid by Method 1): 100%
[2]; [7]
  Stability (% of remaining arachidonic acid by Method 1): 98%
[2]; G) like A) with methemoglobin (human)
  Stability (% of remaining arachidonic acid by Method 1): 97%
[2]; [9]
  Stability (% of remaining arachidonic acid by Method 1): 100%

## O=C1N[C@@H](Cc2c[nH]c3ccccc23)C(=O)N[C@H]1Cc1ccc(O)cc1 [Example 32, Cyclo-TrpTyr]
[1]; Table 1, result in words
  Stimulation: positive
[2]
  Stabilization: positive

## N[C@@H](CS)C(=O)O [Example 33, L-cysteine]
[1]; [3]
  PGD2 %: 27%
  PGE2 %: 56%
  PGF2alpha %: 17%
[2]
  Stability (% remaining fatty acid by Method 1): 94%

## N[C@@H](CCC(=O)N[C@@H](CS)C(=O)NCC(=O)O)C(=O)O [Example 35, Glutathione]
[1]; [3]
  PGD2 %: 0%
  PGE2 %: 100%
  PGF2alpha %: 0%
[1]; [4]
  relative total prostaglandin f: 13.5
[2]; [5]
  Stability (% of remaining arachidonic acid by Method 1): 0%
[2]; [6]
  Stability (% of remaining arachidonic acid by Method 1): 80%
[2]; C) pyridine solution
  Stability (% of remaining arachidonic acid by Method 1): 0%
[2]; [9]
  Stability (% of remaining arachidonic acid by Method 1): 91%
[2]; J) like A) or B), but solvent stripped off
  Stability (% of remaining arachidonic acid by Method 1): 0%
[2]; [8]
  Stability (% of remaining arachidonic acid by Method 1): 92%
[2]
  undesired decomposition / byproducts of polyunsaturated fatty acid (arachidonic acid) with added stimulator: markedly greater quantity

## O=C(O)CCCCC1CCSS1 (stereo not shown) [Example 36, Lipoic acid]
[1]; [3]
  PGD2 %: 8%
  PGE2 %: 43%
  PGF2alpha %: 49%
[1]; mixtures with polyunsaturated fatty acids such as arachidonic acid, result in words
  stimulation of prostaglandin synthesis with much smaller quantities of undesired byproducts: stimulated
[2]
  undesired decomposition / byproducts of polyunsaturated fatty acid (arachidonic acid) with added stimulator: fully suppressed

## COC1=C(OC)C(=O)C(C/C=C(\C)CC/C=C(\C)CC/C=C(\C)CC/C=C(\C)CC/C=C(\C)CC/C=C(\C)CC/C=C(\C)CC/C=C(\C)CC/C=C(\C)CCC=C(C)C)=C(C)C1=O [Example 47, Vitamin Q10, reference compound]
[1]; [10]
  PGD2 %: 14%
  PGE2 %: 8%
  PGF2alpha %: 78%
[1]; [4]
  relative total prostaglandin f: 0.8
[2]
  Stabilization (% remaining unsaturated fatty acid by Method 1): 8%

## O=C(CCc1ccc(O)cc1)c1c(O)cc(O)cc1O[C@@H]1O[C@H](CO)[C@@H](O)[C@H](O)[C@H]1O [Example 53, Phlorizin]
[1]; [10]
  PGD2 %: 18%
  PGE2 %: 80%
  PGF2alpha %: 2%
[1]; [4]
  relative total prostaglandin f: 3
[2]
  Stabilization (% remaining unsaturated fatty acid by Method 1): 97%

## C[C@@H]1O[C@@H](O[C@H]2[C@H](Oc3cc(O)c4c(c3)O[C@H](c3ccc(O)cc3)CC4=O)O[C@H](CO)[C@@H](O)[C@@H]2O)[C@H](O)[C@H](O)[C@H]1O [Example 54, Naringin]
[1]; [10]
  PGD2 %: 15%
  PGE2 %: 83%
  PGF2alpha %: 2%
[1]; [4]
  relative total prostaglandin f: 2
[2]
  Stabilization (% remaining unsaturated fatty acid by Method 1): 96%

## O=C1C[C@@H](c2ccc(O)cc2)Oc2cc(O)cc(O)c21 [Example 55, Naringenin]
[1]; [10]
  PGD2 %: 20%
  PGE2 %: 80%
  PGF2alpha %: 0%
[1]; [4]
  relative total prostaglandin f: 1.5
[2]
  Stabilization (% remaining unsaturated fatty acid by Method 1): 96%

## O=c1c(O)c(-c2ccc(O)cc2)oc2cc(O)cc(O)c12 [Example 56, Kaempferol]
[1]; [10]
  PGD2 %: 13%
  PGE2 %: 76%
  PGF2alpha %: 11%
[1]; [4]
  relative total prostaglandin f: 0.5
[2]
  Stabilization (% remaining unsaturated fatty acid by Method 1): 98%

## Oc1cc(O)c2c(c1)O[C@H](c1ccc(O)c(O)c1)[C@H](O)C2 [Example 59, Epicatechin]
[1]; [10]
  PGD2 %: 12%
  PGE2 %: 71%
  PGF2alpha %: 17%
[2]
  Stabilization (% remaining unsaturated fatty acid by Method 1): 89%

## TrpMetAspPhe [Example 28]
[1]; Table 1, 0.5 mg stimulator, 10 min 37° C., without stimulator f=1
  relative total prostaglandin f: 11.8
[1]; [3]
  PGD2 %: 20%
  PGE2 %: 73%
  PGF2alpha %: 7%
[2]
  Stability (% remaining fatty acid by Method 1): 97%
